Laboratory results taken from publication PMC9287337 (Scientific Reports, 2022).

How the values were obtained:
p-Smad = tested on: p-Smad; set-up: method as in PMID 30602563; details: 30-min stimulation assays; cited from earlier work
C2C12 cells [1] = test: RealTime-Glo MT cell viability assay; type: cell-based, mouse; details: C2C12, 24 h, Supplemental Fig. S3
Description: To first determine how these novel compounds effect the health of C2C12 cells and to establish the range of subtoxic concentrations for future studies, cell viability assays were carried out. Serum-starved C2C12 cells were exposed to increasing concentrations (0.01–1000 µM) of SY-LB-35 and SY-LB-57 for 24 h. Exposure to Triton X-100 (125 µM) is toxic to cells and was used as a negative control for cell viability. Following the 24-h exposure period, the MT Cell viability substrate was added to the cultures. Only viable cells can reduce the substrate and, thereby, generate a luminescent signal. Any decrease in luminescence was considered an indication of cell death or toxicity.
C2C12 cells (100 µL) were seeded in a 96-well plate at 5 × 10^5 cells/mL and incubated overnight in complete growth media to achieve 80% confluency followed by serum-starvation for 16–18 h.
(§1) Next, reagents from the RealTime-Glo™ MT Cell Viability Assay Kit (Promega, Madison, WI, USA) were diluted in SS medium and used according to manufacturer’s protocol. Cellular luminescence was measured using the FilterMax F5 Multi-mode Microplate Reader (Molecular Devices, San Jose, CA, USA). Data from three independent experiments with individual experiments carried out in triplicate was determined and reported as a percentage of control.

C2C12 cells [2] = test: Cell viability assay in presence or absence of Dorsomorphin; type: cell-based, mouse; details: 10 µM inhibitor, 24 h
Description: To resolve whether the SY-LB-35 or SY-LB-57 compound requires type I BMP receptor activity for the induction of cell viability in C2C12 cells, cell viability assays were carried out in the presence or absence of 10 µM DM.
C2C12 cells (100 µL) were seeded in a 96-well plate at 5 × 10^5 cells/mL and incubated overnight in complete growth media to achieve 80% confluency followed by serum-starvation for 16–18 h. […] For BMP receptor inhibition, cell viability assays were carried out in presence or absence of Dorsomorphin (DM; 10 µM; Sigma Aldrich, St. Louis, MO, USA), a non-selective inhibitor of type I BMP receptor activity.
as §1

[3] = tested on: type I BMP receptor-dependent p-Smad; test: Western blot of p-Smad in presence or absence of Dorsomorphin; type: cell-based, mouse; details: 10 µM inhibitor, compounds 1 µM, 30 min
Description: Total whole cell lysates were prepared and used for Western blot analysis of Smad phosphorylation using anti-p-Smad antibodies.
C2C12 cells (3 mL) were seeded into 35 mm dishes at 7.5 × 10^4 cells/mL in complete growth medium, incubated to reach 80% confluence and serum-starved for 16–18 h. […] Thereafter, the cultures were washed with ice-cold 1X TBS for 2 min. Lysis Buffer (Cell Signaling Technology, Danvers, MA, USA) supplemented with 1 mM PMSF (phenylmethylsulphonyl fluoride) was added to the cultures and whole cell lysates were prepared.
Laemmli sample buffer (4X) was added to the whole cell lysates (20 µg) to a final concentration of 1X and heated at 100 °C for 5 min. The samples were immediately cooled on ice for 5 min and centrifuged at 9500 rpm for 2 min at RT. The samples and the Precision Plus Protein Standard (5 µL; Bio-Rad, Hercules, CA, USA) were loaded on 12% SDS polyacrylamide gels. Protein was separated using the Bio-Rad Mini Protean II Gel Electrophoresis System at 135 V. Meanwhile, 0.2 µm nitrocellulose membranes were pre-incubated in cold 1X Transfer Buffer (10 mM Tris/2.5 mM glycine/20% methanol) for at least 30 min. Next, the separated proteins were transferred at 100 V onto the pre-equilibrated nitrocellulose membranes for 1 h in Transfer Buffer, followed by blocking in 5% BSA/0.1% Tween 20/1X TBS for 30 min. The membranes were incubated overnight at 4 °C with the desired primary rabbit monoclonal antibody (p-Smad1/5(S463/465)/9(S465/467), Smad1 (D5907) XP®, p-Akt (Ser473) (D9E) XP®, or Akt (pan) (C67E7), p-SAPK/JNK (Thr183/Tyr185), SAPK/JNK, β-actin (Cell Signaling Technologies, Danvers, MA, USA)) or rabbit polyclonal antibody (phospho-PI3 Kinase p85 (Tyr458)/p55 (Tyr199) antibody (Cell Signaling Technologies, Danvers, MA, USA), p-p38 MAPK, p38 MAPK, p-ERK1, ERK1/2) (Abclonal, Woburn, MA, USA)) in Antibody Dilution Buffer (1% BSA/0.1% Tween 20/1X TBS) and then washed with 1X TBST (0.1% Tween 20/1X TBS) three times for 15 min. HRP-conjugated Goat Anti-Rabbit IgG secondary antibody (Santa Cruz Biotechnology, Inc., Dallas, TX, USA) in Antibody Dilution Buffer was added to the membranes for 1 h at RT followed by three 15-min washes with 1X TBST. Finally, the blots were developed using SuperSignal ™ West Femto HRP Substrate solutions (Thermo Scientific, Rockford, IL, USA) and analysed using the Omega Lum™ G Imaging System (San Francisco, CA, USA). Quantification of chemiluminescent signals was carried out using ImageJ (Image Processing and Analysis in Java 1.8.0_112).

Row | Molecule | Increase in p-Smad levels over control (p-Smad) | Effect on cell viability (C2C12 cells [1]) | other results
1 | Brc1ccc(CSc2nc3ccccc3o2)cc1 [sb4, reference compound] | twofold |  | 
2 | BMP9: recombinant BMP family member |  | Increases in cell viability | 
3 | c1cc(-c2cnn3cc(-c4ccc(OCCN5CCCCC5)cc4)cnc23)ccn1 [DM, Dorsomorphin, reference compound] |  |  | Effect of inhibitor on cell viability increases stimulated by SY-LB-35 and SY-LB-57 (C2C12 cells [2]): complete inhibition of the cell viability increases; Effect of inhibitor on p-Smad increase induced by SY-LB-35 and SY-LB-57 [3]: completely prevented the increase in p-Smad levels
4 | BMP6: recombinant BMP family member (protein, UniProt P22004 375-513, looked up) Bone morphogenetic protein 6: SASSRRRQQSRNRSTQSQDVARVSSASDYNSSELKTACRKHELYVSFQDLGWQDWIIAPKGYAANYCDGECSFPLNAHMNATNHAIVQTLVHLMNPEYVPKPCCAPTKLNAISVLYFDDNSNVILKKYRNMVVRACGCH |  | Increases in cell viability | 
5 | BMP7: recombinant BMP family member (protein, UniProt P18075 293-431, looked up) Bone morphogenetic protein 7: STGSKQRSQNRSKTPKNQEALRMANVAENSSSDQRQACKKHELYVSFRDLGWQDWIIAPEGYAAYYCEGECAFPLNSYMNATNHAIVQTLVHFINPETVPKPCCAPTQLNAISVLYFDDSSNVILKKYRNMVVRACGCH |  | Increases in cell viability | 
6 | BMP4: BMP ligand used as comparator in the literature study (protein, UniProt P12644 293-408, looked up) Bone morphogenetic protein 4: SPKHHSQRARKKNKNCRRHSLYVDFSDVGWNDWIVAPPGYQAFYCHGDCPFPLADHLNSTNHAIVQTLVNSVNSSIPKACCVPTELSAISMLYLDEYDKVVLKNYQEMVVEGCGCR | 11 fold |  | 
